Test results reported in US12599136B2, “Substituted isophthalic acid diamides and their use as herbicides” (Bayer Aktiengesellschaft, priority 2020, dated 2026).

Experiments:
Assay type in all cases: in vivo
[1] = tested on: Abutilon theophrasti; test: Pre-emergence herbicidal action against ABUTH; conditions: visual score after 3 weeks vs untreated controls
How it was run: (§1)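 Sandy loam pots, seeds covered with soil, then surface-treated with WP or EC formulations at 600–800 l/ha water plus 0.2% wetting agent. Greenhouse, 3 weeks. Percent damage vs untreated controls.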

[2] = tested on: Alopecurus myosuroides; test: Pre-emergence herbicidal action against ALOMY; conditions: visual score after 3 weeks vs untreated controls
How it was run: as §1

[3] = tested on: Amaranthus retroflexus; test: Pre-emergence herbicidal action against AMARE; conditions: visual score after 3 weeks vs untreated controls
How it was run: as §1

[4] = tested on: Avena fatua; test: Pre-emergence herbicidal action against AVEFA; conditions: 80 g/ha; visual score after 3 weeks vs untreated controls
Description: (§2) Seeds of monocotyledonous and dicotyledonous weed plants and crop plants are laid out in sandy loam soil in wood-fiber pots and covered with soil. The compounds of the invention, formulated in the form of wettable powders (WP) or as emulsion concentrates (EC), are then applied to the surface of the covering soil in the form of an aqueous suspension or emulsion at a water application rate equivalent to 600 to 800 l/ha, with addition of 0.2% wetting agent. After the treatment, the pots are placed in a greenhouse and kept under good growth conditions for the trial plants. The damage to the test plants is scored visually after a test period of 3 weeks by comparison with untreated controls (herbicidal activity in percent (%): 100% activity=the plants have died, 0% activity=like control plants). […] The tables below illustrate, in an illustrative manner, the post-emergence herbicidal action of the compounds of the invention, the herbicidal activity being stated in percent.

[5] = tested on: Echinochloa crus-galli; test: Pre-emergence herbicidal action against ECHCG; conditions: 80 g/ha; visual score after 3 weeks vs untreated controls
How it was run: as §1

[6] = tested on: Matricaria inodora; test: Pre-emergence herbicidal action against MATIN; conditions: visual score after 3 weeks vs untreated controls
How it was run: as §1

[7] = tested on: Lolium rigidum; test: Pre-emergence herbicidal action against LOLRI; conditions: 80 g/ha
Description: as §2

[8] = tested on: Polygonum convolvulus; test: Pre-emergence herbicidal action against POLCO; conditions: 80 g/ha
Description: as §2

[9] = tested on: Setaria viridis; test: Pre-emergence herbicidal action against SETVI; conditions: 80 g/ha
How it was run: as §1

[10] = tested on: Veronica persica; test: Pre-emergence herbicidal action against VERPE
How it was run: as §1

[11] = tested on: Viola tricolor; test: Pre-emergence herbicidal action against VIOTR
How it was run: as §1

[12] = tested on: Abutilon theophrasti; test: Post-emergence herbicidal action against ABUTH
How it was run: (§3)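 Herbicidal action is a visual percentage rating (0% = as untreated control, 100% = plants dead) made roughly 3 weeks after treatment. Plants were grown in sandy loam in the greenhouse and treated at the one-leaf stage, 2 to 3 weeks post-sowing. Treatment was a foliar spray of wettable-powder or emulsion-concentrate formulations at 600 to 800 l/ha water plus 0.2% wetting agent.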

[13] = tested on: Amaranthus retroflexus; test: Post-emergence herbicidal action against AMARE; conditions: visual assessment about 3 weeks after treatment
How it was run: as §3

[14] = tested on: Avena fatua; test: Post-emergence herbicidal action against AVEFA; conditions: 20 g/ha, visual assessment about 3 weeks after treatment
How it was run: as §3

[15] = tested on: Echinochloa crus-galli; test: Post-emergence herbicidal action against ECHCG; conditions: visual assessment about 3 weeks after treatment
How it was run: as §3

[16] = tested on: Matricaria inodora; test: Post-emergence herbicidal action against MATIN; conditions: visual assessment about 3 weeks after treatment
How it was run: as §3

[17] = tested on: Setaria viridis; test: Post-emergence herbicidal action against SETVI; conditions: visual assessment about 3 weeks after treatment
How it was run: as §3

[18] = tested on: Veronica persica; test: Post-emergence herbicidal action against VERPE; conditions: visual assessment about 3 weeks after treatment
How it was run: as §3

[19] = tested on: Viola tricolor; test: Post-emergence herbicidal action against VIOTR
How it was run: as §3

[20] = tested on: Digitaria sanguinalis; test: Pre-emergence herbicidal action against DIGSA; conditions: 80 g/ha
How it was run: as §1

[21] = tested on: Pharbitis purpurea; test: Post-emergence herbicidal action against PHBPU; conditions: visual assessment about 3 weeks after treatment
How it was run: as §3

[22] = tested on: Digitaria sanguinalis; test: Post-emergence herbicidal action against DIGSA; conditions: 20 g/ha
Method: Seeds of monocotyledonous and dicotyledonous weed and crop plants are laid out in sandy loam soil in wood-fiber pots, covered with soil and cultivated in a greenhouse under good growth conditions. 2 to 3 weeks after sowing, the test plants are treated at the one-leaf stage. The compounds of the invention, formulated in the form of wettable powders (WP) or as emulsion concentrates (EC), are then sprayed onto the green parts of the plants in the form of an aqueous suspension or emulsion at a water application rate equivalent to 600 to 800 l/ha, with addition of 0.2% wetting agent. After the test plants have been left to stand in the greenhouse under optimal growth conditions for about 3 weeks, the action of the preparations is assessed visually in comparison to untreated controls (herbicidal action in percent (%): 100% activity=the plants have died, 0% activity=like control plants). […] The tables below illustrate, in an illustrative manner, the post-emergence herbicidal action of the compounds of the invention, the herbicidal activity being stated in percent.

[23] = tested on: Alopecurus myosuroides; test: Post-emergence herbicidal action against ALOMY
How it was run: as §3

Compound | Pre-emergence action against ABUTH ([1]; 20 g/ha) | Pre-emergence action against ABUTH ([1]; 80 g/ha) | Pre-emergence action against ALOMY ([2]; 80 g/ha) | Pre-emergence action against AMARE ([3]; 20 g/ha) | Pre-emergence action against AMARE ([3]; 80 g/ha) | Pre-emergence action against ECHCG [5] | Pre-emergence action against MATIN ([6]; 20 g/ha) | Pre-emergence action against MATIN ([6]; 80 g/ha) | Pre-emergence action against LOLRI [7] | Pre-emergence action against SETVI [9] | Pre-emergence action against VERPE ([10]; 80 g/ha) | Pre-emergence action against VIOTR ([11]; 80 g/ha) | Post-emergence action against ABUTH ([12]; 5 g/ha) | Post-emergence action against ABUTH ([12]; 20 g/ha) | Post-emergence action against AMARE in % ([13]; 5 g/ha) | Post-emergence action against AMARE in % ([13]; 20 g/ha) | Post-emergence action against AVEFA in % [14] | Post-emergence action against MATIN in % ([16]; 20 g/ha) | Post-emergence action against SETVI in % ([17]; 20 g/ha) | Post-emergence action against VIOTR in % ([19]; 20 g/ha) | further results
CCn1nnnc1NC(=O)c1ccc(C(F)F)c(C(=O)N(C)CC(F)F)c1Cl [Example 2-159] | 100% | 100% | 100% | 100% | 100% | 90% | 90% | 100% | 90% | 100% | 80% | 100% | 80% | 90% | 100% | 100% | 90% | 90% | 90% | 90% | Pre-emergence action against AVEFA [4]: 90%; Pre-emergence action against POLCO [8]: 90%; Post-emergence action against ECHCG in % ([15]; 20 g/ha): 90%; Post-emergence action against MATIN in % ([16]; 5 g/ha): 80%; Post-emergence action against VERPE in % ([18]; 20 g/ha): 80%; Post-emergence action against VIOTR in % ([19]; 5 g/ha): 80%
CCN(C)C(=O)c1c(C(F)(F)F)ccc(C(=O)Nc2nnnn2C)c1C [Example 1-20, N^3-ethyl-N^3-2-dimethyl-N^1-(1-methyl-1H-tetrazol-5-yl)-4-(trifluoromethyl)isophthalamide] |  | 100% | 90% | 80% | 90% |  |  | 100% |  | 100% | 80% | 100% | 80% | 90% |  |  |  |  | 80% | 90% | Pre-emergence action against DIGSA [20]: 90%; Post-emergence action against PHBPU in % ([21]; 20 g/ha): 90%; Post-emergence action against DIGSA in % [22]: 80%
CCn1nnnc1NC(=O)c1ccc(C(F)F)c(C(=O)N(C)C2CC2)c1Cl [Example 2-156] | 100% | 100% | 90% | 100% | 100% | 100% | 100% | 100% | 80% | 100% | 90% | 100% |  | 90% | 100% | 100% | 90% | 90% | 80% | 90% | Pre-emergence action against ALOMY ([2]; 20 g/ha): 90%; Pre-emergence action against AVEFA [4]: 90%; Pre-emergence action against POLCO [8]: 90%; Post-emergence action against ALOMY ([23]; 20 g/ha): 90%; Post-emergence action against ECHCG in % ([15]; 20 g/ha): 90%; Post-emergence action against MATIN in % ([16]; 5 g/ha): 90%; Post-emergence action against PHBPU in % ([21]; 5 g/ha): 80%; Post-emergence action against PHBPU in % ([21]; 20 g/ha): 80%; Post-emergence action against VERPE in % ([18]; 20 g/ha): 80%; Post-emergence action against VIOTR in % ([19]; 5 g/ha): 90%
CCn1nnnc1NC(=O)c1ccc(C(F)(F)F)c(C(=O)N(C)C2CC2)c1Cl [Example 2-125] | 90% | 100% | 100% | 100% | 100% |  |  | 100% |  | 100% |  | 100% |  |  | 90% | 90% | 80% | 90% |  |  | Pre-emergence action against DIGSA [20]: 100%; Post-emergence action against ALOMY ([23]; 20 g/ha): 80%; Post-emergence action against DIGSA in % [22]: 90%
CN(CC(F)F)C(=O)c1c(C(F)F)ccc(C(=O)Nc2nnnn2C)c1Cl [Example 1-159] | 100% | 100% | 90% | 100% | 100% | 100% | 90% | 100% | 80% | 100% | 100% | 100% | 90% | 90% | 100% | 100% |  | 90% | 100% | 90% | Pre-emergence action against ALOMY ([2]; 20 g/ha): 90%; Pre-emergence action against AVEFA [4]: 80%; Pre-emergence action against POLCO [8]: 80%; Pre-emergence action against VERPE ([10]; 20 g/ha): 90%; Post-emergence action against ALOMY ([23]; 5 g/ha): 90%; Post-emergence action against ALOMY ([23]; 20 g/ha): 90%; Post-emergence action against ECHCG in % ([15]; 5 g/ha): 80%; Post-emergence action against ECHCG in % ([15]; 20 g/ha): 90%; Post-emergence action against MATIN in % ([16]; 5 g/ha): 80%; Post-emergence action against PHBPU in % ([21]; 20 g/ha): 90%; Post-emergence action against SETVI in % ([17]; 5 g/ha): 100%; Post-emergence action against VERPE in % ([18]; 5 g/ha): 80%; Post-emergence action against VERPE in % ([18]; 20 g/ha): 90%; Post-emergence action against VIOTR in % ([19]; 5 g/ha): 80%
Cc1c(C(=O)Nc2nnnn2C)ccc(C(F)(F)F)c1C(=O)N(C1CC1)C1CC1 [Example 1-40] |  | 80% |  | 100% | 100% | 80% |  | 90% |  |  |  | 100% |  |  | 80% | 80% |  | 80% |  |  | Pre-emergence action against DIGSA [20]: 100%; Post-emergence action against DIGSA in % [22]: 90%
CCN(C(=O)c1c(C(F)F)ccc(C(=O)Nc2nnnn2CC)c1Cl)C1CC1 [Example 2-167] | 100% | 100% | 100% | 100% | 100% | 90% | 100% | 100% | 80% | 100% |  | 100% | 90% | 90% | 100% | 100% | 80% | 80% | 90% | 100% | Pre-emergence action against VIOTR ([11]; 20 g/ha): 80%; Post-emergence action against ALOMY ([23]; 5 g/ha): 80%; Post-emergence action against ALOMY ([23]; 20 g/ha): 100%; Post-emergence action against ECHCG in % ([15]; 20 g/ha): 90%; Post-emergence action against PHBPU in % ([21]; 20 g/ha): 90%; Post-emergence action against SETVI in % ([17]; 5 g/ha): 90%; Post-emergence action against VERPE in % ([18]; 20 g/ha): 80%
